Target: T1, cysteamine (2-aminoethanethiol) dioxygenase (ADO) (Homo sapiens, UniProt Q96SZ5)
T1 sequence (Q96SZ5 1-270): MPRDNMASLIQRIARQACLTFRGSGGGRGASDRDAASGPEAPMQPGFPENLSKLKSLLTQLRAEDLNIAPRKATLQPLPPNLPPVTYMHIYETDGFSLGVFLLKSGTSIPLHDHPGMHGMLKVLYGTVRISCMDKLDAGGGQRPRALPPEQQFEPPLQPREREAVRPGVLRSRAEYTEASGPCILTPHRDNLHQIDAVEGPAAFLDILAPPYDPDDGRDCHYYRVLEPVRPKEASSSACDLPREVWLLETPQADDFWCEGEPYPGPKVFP
Experiment: competition of N-Cys peptide dioxygenation by recombinant ADO
Type: biochemical

IC50 [mM] | SMILES
37 | NCCS [cysteamine]
13 | N[C@@H](CS)C(=O)O [cysteine]

Source: PMC6715447 (Science (New York, N.Y.), 2019)
